Source: article PMC5537305, “Photo-enhanced Aqueous Solubilization of an Azo-compound” (Scientific Reports, 2017)
In brackets after ≈: the same amount, converted by molar mass.

Key:
Format in all cases: physicochemical
[1] = Aqueous solubilization in 1/15 M phosphate buffer (pH 7.4) under UV, visible light or dark, with cis ratio in solution by HPLC
Procedure: (§1) Table S3. Cis ratio and aqueous solubilization of 3 under UV irradiation, under visible light irradiation, and in […]
(§2) Compound 3 was shaken at 37 °C under UV irradiation, under visible light irradiation, and in the dark. UV irradiation was performed with a mercury lamp (0.5 mW/cm2). Cis ratio in the aqueous solution was evaluated from the peak areas in HPLC immediately after filtration.
Table S4. Aqueous solubilization and cis ratio of 3 under irradiation at various wavelengths through filters of […]
Illumination was performed with a xenon lamp using repeated cycles of irradiation and shaking (5000 flashes, then shaking for 10 sec) through filters of various bandwidths at room temperature (20-22 °C) for 1 h. The cis ratio in the aqueous solution was evaluated by HPLC immediately after filtration, based on peak area.
Table S5. Aqueous solubilization of 3 under UV irradiation at various intensity levels.
Sample irradiation was conducted using 365 nm LED light (max light intensity: 290 mW/cm2) at 37 °C for 1 […]
Sample irradiations were conducted with the white light through a filter cutting off wavelengths below 560 nm, or with 365 nm LED light (344 mW/cm2) at 37 °C for 1 h.
Table S7. Aqueous dissolution of UV-irradiated crystals of 3 measured in the dark, and the cis ratio contained […]
Crystals of 3 were irradiated with 365 nm LED light (344 mW/cm2) at 37 °C for 3 h.
The UV-irradiated crystals and unirradiated crystals were each shaken in phosphate buffer in the dark at 37 °C for 1 h.
Physicochemical properties […]
Compound 3 (about 0.2 mg) was ground and taken up in 1/15 M phosphate buffer (pH 7.4, 1.0 mL) in a 10 mL glass tube. The suspension was incubated under ultrasound irradiation for 10 min, and shaken in a temperature controllable incubator located in a dark room for the indicated time at the indicated temperature.
With shaking on a plate shaker, a sample was irradiated with a 365 nm mercury lamp (4 W, UVP compact […]
white LED light (5 W, Nikki Trading Corp., NLSS05BM, 68 and 54 mW/cm2 at 450 and 540 nm, respectively) through a filter cutting off wavelengths below 560 nm (Atto Corp. YA-3). Irradiation was done from the top of the sample glass tube. Then, the suspension was filtered through a Millipore Millex-LG (0.20 […]
For irradiation at various UV wavelengths, 3 (about 0.1 mg) was ground and taken up in 1/15 M phosphate buffer (pH 7.4, 0.2 mL) in a well of a 96-well white plate. Illumination over a range of wavelength from 355-540 nm was performed using a plate reader EnVision equipped with a xenon flash lamp (35 W, 500 Hz), with excitation filters of appropriate bandwidths.

[2] = Aqueous solubility of stilbenes 1 and 2 in phosphate buffer; conditions: for solubility at 24 h: 20 °C, aqueous buffer, thermodynamic from solid, 20 °C for 24 h
From the text: First, we synthesized cis- and trans-stilbene analogs 1 and 2 as models for cis- and trans-azobenzenes, respectively (Fig. 1, Fig. S1). As expected, cis-1 was 14 times more soluble than trans-2 in phosphate buffer (Table S1). To confirm the putative mechanism of the higher solubility of the cis isomer, the melting point and LogP ow were examined as parameters of intermolecular interaction and hydrophobicity, respectively. The order of lower melting points (cis < trans) was the same as the order of higher aqueous solubility (cis > trans). As for hydrophobicity, the LogP ow values of 1 and 2 were almost the same. […] Therefore, the bent and twisted structure of cis-azobenzenes may result in greater aqueous solubility.
Table S1. Physicochemical properties of stilbenes 1 and 2.
Compound (µg/mL) Melting point (º C) LogPow λmax (nm)
Table S2. Photoinduced isomerization of 3
Light Time (min) cis ratio (%) trans ratio (%)
Compound 3 (10 µM) in a mixture of water and MeOH (1%) was successively exposed to white light and to a 365 nm mercury lamp (0.5 mW/cm2). The cis-trans ratio was calculated from the peak areas in HPLC.
as §1
Shake UV light Visible light Dark time cis ratio Solubilized 3 cis ratio Solubilized 3 cis ratio Solubility (%) (µg/mL) (%) (µg/mL) (%) (µg/mL)
as §2

[3] = LogPow by HPLC method (OECD 117); conditions: reversed-phase HPLC column (Inertsil ODS-4)
Procedure: Inc. Inertsil ODS-4 reversed-phase column, 5 µm, 4.6 mm x 150 mm) eluted with a mobile phase consisting of H2O and CH3CN (45: 55) at a flow rate of 1.0 mL/min, with UV monitoring at 300 (for 1) or 330 (for 2) nm, at 37 ° C. The dead time t0 was measured with thiourea as the unretained compound. Each measurement was performed in duplicate, and the mean retention time (tR) was used for further calculations. The capacity factor of each compound, k = ((tR – t0) / t0), was calculated by extrapolation of the line fitted on the measured log k values of CH3CN−aqueous mobile phase. For the reference substrates (acetanilide, methyl benzoate, toluene, 4-phenylphenol, benzyl benzoate, dibenzyl), the calculated log k values were plotted against logPow values, and the absolute calibration curve was determined (LogP = 2.8279 x (log k) + 1.6035, R2=0.98). The LogP values of tested compounds were calculated using a previously prepared calibration curve from the tR […]
We observed the azobenzene compound using an optical microscope (BX-51P, Olympus). Bright-field images were captured in the reflection mode. For investigation of the existence of the polarization plane in the sample, the transmitted polarizing microscope mode under crossed-Nicol conditions was used. […] The intensity of illuminating UV light at the sample was monitored with an optical power meter […]

| aqueous solubilization under UV irradiation vs in the dark ([1]; UV 0.5 mW/cm2, 37 °C, 5 h) | increase of solubilization by UV irradiation ([1]; more intense UV irradiation (344 mW/cm2)) | Structure (SMILES) | solubility at 24 h [2] | chromatographic logP [3] | times more soluble than trans-2 ([2]; cis-1 vs trans-2) |
| --- | --- | --- | --- | --- | --- |
| essentially the same | 1.4 fold | O=C(O)c1cc(/N=N/c2ccc(S(=O)(=O)Nc3ccccn3)cc2)ccc1O [Compound 4, Sulfasalazine, reference compound] |  |  |  |
|  |  | COc1ccc(/C=C/c2ccc(OC)c(OC)c2)cc1OC [trans-2] | 0.0475 µg/mL (≈ 0.158 µM) | 3.2 |  |
|  |  | COc1ccc(/C=C\c2ccc(OC)c(OC)c2)cc1OC [cis-1] | 0.673 µg/mL (≈ 2.24 µM) | 3.3 | 14 times |
